Consider 1 molecule from patent US20080176914A1, “CRYSTAL FORM OF 2-(3-FLUORO-4-HYDROXYPHENYL)-7-VINYL-1,3-BENZOXAZOL-5-OL” (WYETH, priority 2006, published 2008).

The data set can be described thus: Conversion of the crystal form on suspending and stirring in solvent at room temperature. In kind it is physicochemical. From the text: The anhydrate crystal form (Form B) can be converted to other crystal forms under suitable conditions.

Take `C=Cc1cc(O)cc2nc(-c3ccc(O)c(F)c3)oc12` [Form B, 2-(3-fluoro-4-hydroxyphenyl)-7-vinyl-1,3-benzoxazol-5-ol]: for the setting “suspended and stirred in ethanol at room temperature for three days”, the “crystal form obtained after suspending and stirring in ethanol” value is on record as “another anhydrate crystal form is obtained”. Also, for the setting “suspended and stirred in methanol at room temperature for one day”, the “crystal form obtained after suspending and stirring in methanol” value is reported as “another anhydrate crystal form is obtained”. Further, the “crystal form obtained after suspending and stirring in water” value (suspended and stirred in water at room temperature for three days) is given as “a hydrate crystal form is obtained”.
